From patent US8715673B2 (priority 2011, dated 2014)
Values joined by “and” are separate entries in the source; they are usually repeats but may differ in a detail not shown here. Identical values can stand only once. Like-named read-outs stand apart in the source and are kept apart here.

Legend:
Conditions in all cases: in vivo
[1] = tested on: S. aureus strain USA300 (LAC)
[2] = tested on: S. aureus strain USA300 (LAC); remark: listed apart in the source
[3] = tested on: Staphylococcus aureus strain USA300 (LAC); set-up: species or system S. aureus
[4] = tested on: Staphylococcus aureus strain USA300 (LAC); set-up: species or system S. aureus; remark: listed apart in the source
[5] = tested on: S. aureus strain USA300 (LAC); remark: listed apart in the source
[6] = tested on: S. aureus strain USA300 (LAC); remark: listed apart in the source
[7] = tested on: S. aureus strain USA300 (LAC); remark: listed apart in the source
[8] = tested on: S. aureus strain USA300 (LAC); remark: listed apart in the source

SMILES: CC(=O)NC[C@H]1CN(c2ccc(N3CCOCC3)c(F)c2)C(=O)O1 [linezolid]
- Cumulative survival (%) Day 0 [1]: 100%
- Cumulative survival (%) Day 1 [1]: 100%
- Cumulative survival (%) Study end [1]: 40%
- Cumulative survival (%) Day 0 [2]: 100%
- Cumulative survival (%) Day 1 [2]: 100%
- Cumulative survival (%) Day 2 [2]: 60% and 100%
- Cumulative survival day 1 [2]: 100%
- Cumulative survival day 2 [2]: 60%
- Cumulative survival day 3 [2]: 20%
- Cumulative survival day 4 [2]: 20%
- Cumulative survival day 5 [2]: 20%
- Median survival time [2]: 4 days and 2.5 days
- survival rate [2]: 90%
- Average area of abscess (mm^2) Day 0 [3]: 0.0 mm^2
- Average area of abscess (mm^2) Day 1 [3]: 0.0 mm^2
- Average area of abscess (mm^2) Day 2 [3]: 6.6 mm^2
- Average area of abscess (mm^2) Day 3 [3]: 4.9 mm^2
- Average area of abscess (mm^2) Day 4 [3]: 3.7 mm^2
- mean area of skin abscess, day 1 [3]: about 0.0 mm^2
- mean area of skin abscess, day 2 [3]: ~6.6 mm^2
- mean area of skin abscess, day 3 [3]: ~4.9 mm^2
- mean area of skin abscess, day 4 [3]: ~3.7 mm^2
- Day 4 CFU/g tissue (log10), Mean CFU/g [4]: 5.2 CFU/g tissue (log10)
- Day 4 CFU/g tissue (log10), individual mice [4]: 5.7 CFU/g tissue (log10) and 5.2 CFU/g tissue (log10) and 6.0 CFU/g tissue (log10) and 4.5 CFU/g tissue (log10) and 4.8 CFU/g tissue (log10) and 5.1 CFU/g tissue (log10) and 5.4 CFU/g tissue (log10) and 4.9 CFU/g tissue (log10)
- Day 4 CFU/g tissue (log10), median [4]: 5.1 CFU/g tissue (log10)
- bacterial burden in the infected area, average [4]: about 5.2 log 10 CFU/g
- Cumulative survival (%) day 0, 2 h [5]: 100%
- Cumulative survival (%) day 0, 4 h [5]: 100%
- Cumulative survival (%) day 0, 8 h [5]: 100%
- Cumulative survival (%) day 0, 12 h [5]: 100%
- Cumulative survival (%) day 1 [5]: 100% and 60%
- CFU/g Kidney Tissue (log10), individual mouse [6]: 0.00 and 5.95 and 3.77 and 3.21
- CFU/g Kidney Tissue (log10), mean CFU/g [6]: 3.23
- CFU/g Lung Tissue (log10), individual mouse [6]: 3.13 and 7.64 and 4.36 and 3.55
- CFU/g Lung Tissue (log10), mean CFU/g [6]: 4.67
- Cumulative survival (%) Day 1 [7]: 100%
- Cumulative survival (%) Day 7 [7]: 70%
- cumulative survival at day 7 [7]: 70%
- survival rate at day 14 (study end) [7]: 70%
- Cumulative survival (%) Day 1 [8]: 100%
- Cumulative survival (%) Day 7 [8]: 70%
- cumulative survival at day 7 [8]: 70%
- survival rate at study end [8]: 60%
